IC50 data for seven compounds are collected here from ChEMBL document CHEMBL1131643, “Synthesis and 5 alpha-reductase inhibitory activities of benzofuran derivatives with a carbamoyl group” (Bioorg Med Chem Lett, 1998).

The target in test [1] is T1, 3-oxo-5-alpha-steroid 4-dehydrogenase 1 (Homo sapiens, UniProt P18405).
T1 sequence (P18405 whole entry): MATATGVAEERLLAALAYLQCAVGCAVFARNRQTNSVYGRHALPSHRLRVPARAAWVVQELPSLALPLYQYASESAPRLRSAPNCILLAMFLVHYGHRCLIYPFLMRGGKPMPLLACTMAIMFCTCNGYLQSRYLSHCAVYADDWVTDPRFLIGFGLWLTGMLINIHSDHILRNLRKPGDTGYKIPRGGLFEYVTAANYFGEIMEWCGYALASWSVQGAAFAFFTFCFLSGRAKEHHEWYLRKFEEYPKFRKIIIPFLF
The experiment in a line: In vitro inhibitory activity against human Steroid 5-alpha-reductase type 1 in COS-1 cells was determined. In kind it is cell-based.

Test [2] deals with T2, Steroid 5-alpha-reductase (Rattus norvegicus, UniProt P24008+P31214).
T2 sequence (P24008 whole entry): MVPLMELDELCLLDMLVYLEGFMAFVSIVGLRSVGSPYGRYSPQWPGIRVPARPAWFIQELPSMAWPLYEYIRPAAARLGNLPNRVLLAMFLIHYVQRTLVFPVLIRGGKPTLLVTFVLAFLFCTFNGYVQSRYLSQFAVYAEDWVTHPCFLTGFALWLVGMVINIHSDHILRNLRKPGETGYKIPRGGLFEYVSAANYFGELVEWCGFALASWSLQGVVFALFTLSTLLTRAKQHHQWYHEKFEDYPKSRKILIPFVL
T2 sequence (P31214 whole entry): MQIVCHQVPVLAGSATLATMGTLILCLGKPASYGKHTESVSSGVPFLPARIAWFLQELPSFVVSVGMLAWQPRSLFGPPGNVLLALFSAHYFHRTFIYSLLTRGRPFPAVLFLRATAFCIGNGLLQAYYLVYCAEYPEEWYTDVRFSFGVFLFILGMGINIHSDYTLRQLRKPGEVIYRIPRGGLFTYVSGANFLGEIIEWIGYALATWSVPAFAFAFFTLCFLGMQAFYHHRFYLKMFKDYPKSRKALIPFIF
The experiment in a line: In vitro inhibitory activity against rat testosterone 5 alpha reductase was determined. The test is classed as protein assay.

For test [3], the target named is T3, 3-oxo-5-alpha-steroid 4-dehydrogenase 2 (Homo sapiens, UniProt P31213).
T3 sequence (P31213 whole entry): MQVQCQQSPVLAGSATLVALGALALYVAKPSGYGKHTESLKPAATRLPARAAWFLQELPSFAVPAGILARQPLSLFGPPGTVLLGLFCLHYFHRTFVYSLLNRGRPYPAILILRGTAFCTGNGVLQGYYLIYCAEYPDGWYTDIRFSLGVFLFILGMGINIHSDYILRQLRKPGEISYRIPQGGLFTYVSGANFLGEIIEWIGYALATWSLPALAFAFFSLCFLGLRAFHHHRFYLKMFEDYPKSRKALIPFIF
In words: In vitro inhibitory activity against human Steroid 5-alpha-reductase type 2 in COS-1 cells was determined. In kind it is cell-based.

In the case of `CC(C)Cc1ccc(C(Nc2cccc(C(=O)c3cn(CCCC(=O)O)c4ccccc34)c2)c2ccc(CC(C)C)cc2)cc1`, the IC50 in test [1] came out at 0.003 µM; in test [2] it was 0.118 µM; in test [3] it was 0.011 µM.

Turning to `O=C(O)CCCOc1ccccc1-c1cc2cc(C(=O)NC(c3ccc(F)cc3)c3ccc(F)cc3)ccc2o1`, the IC50 in test [2] came to 0.279 µM.

With `COc1ccc(C(NC(=O)c2ccc3oc(-c4ccccc4OCCCC(=O)O)cc3c2)c2ccc(OC)cc2)cc1`, in test [2], the 50% inhibitory concentration (IC50) is 0.0263 µM.

With `O=C(O)CCCOc1ccccc1-c1cc2cc(C(=O)NC(c3ccccc3)c3ccccc3)ccc2o1`, the half-inhibitory concentration (IC50) in test [1] was 0.31 µM; in test [2], 0.155 µM; in test [3], above 100 µM.

`O=C(O)CCCOc1ccccc1-c1cc2ccc(C(=O)NC(c3ccc(F)cc3)c3ccc(F)cc3)cc2o1`: the IC50 in test [1] came out at 0.05 µM; in test [2], 0.0379 µM; in test [3], 0.34 µM.

As for `O=C(O)CCCOc1ccccc1-c1cc2ccc(C(=O)NC(c3ccccc3)c3ccccc3)cc2o1`, the IC50 in test [1] amounted to 0.062 µM; in test [2], 0.0285 µM; in test [3], 0.27 µM.

Take `COc1ccc(C(NC(=O)c2ccc3cc(-c4ccccc4OCCCC(=O)O)oc3c2)c2ccc(OC)cc2)cc1`: the half-inhibitory concentration (IC50) in test [1] was determined as 0.13 µM; in test [2], 0.0355 µM; in test [3], 0.93 µM.
